# Test system: human monocytes (THP-1 cell line)
# Test: multiplex functional cell-based HTS assay (5-plex): expression of co-stimulatory molecules and cytokines by THP-1 monocytes
# Design: IL-8 / RANTES / TNFα: unit not given here
# Conditions: THP-1 cells incubated overnight with 10^-5M test compound; for IL-8 / RANTES / TNFα: concentration in cell culture supernatant, Luminex, mean of two wells; for CD54 / CD80: flow cytometry, specific staining (MFI minus isotype control MFI)
# Protocol: Test compounds/candidate agents were diluted in 100% DMSO at a concentration of 10^−2M and stored in 96 well “matrix” plates at −80° C. These compound stocks were employed as a pool of mother plates. Compounds to be assayed were diluted 100 times in sterile PBS using a liquid handling robot “Evolution P3” (PerkinElmer) to a concentration of 10^−4M, and stored at −20° C. until they were used for the assay. In total, 20,000 candidate agents were tested.
# 10^5 THP-1 cells were incubated overnight with 10^−5M of test compound (20 μl of 10^−4M compound stock solution was added to 180 μl of the cells suspension). Incubations were carried out in U bottom 96 well tissue culture plates. Each compound was tested in duplicate. Collection of the cell culture supernatants and cell surface receptor staining were carried out using the “Biomek 2000” liquid handling robot (Becton Coulter).
# Expression of cell surface receptors was analyzed by flow cytometry using the following antibodies: PE-conjugated anti-human CD80 and APC conjugated anti-human CD54 (ICAM-1) and matching labeled isotype controls, all from BD Pharmingen. Cells in the first well of each duplicate were stained with isotype controls (IC). In the second well, cells were stained with CD80 and CD54 antibodies. Stained cells were analyzed on a flow cytometer (FACSArray cytometer (BD Pharmingen)). The mean fluorescence intensity (MFI) for IC and CD80/CD54 antibodies stained cells were determined using “FlowJo” software (Tree Star, Inc.). The IC MFIs were subtracted from CD80/CD54 MFIs and results were recorded as specific staining and used for the following data analysis.
# The concentrations of IL-8, RANTES and TNFα in cell culture supernatants were determined for each well of the duplicates using the “Fluorokine MultiAnalyte Profiling” kits (R&D Systems). Samples were analyzed on the Luminex 100IS system and data analysis was performed using Luminex 2.3IS software (both from Luminex corporation). The mean value of two wells was recorded and used for the following data analysis.
# To identify agents that stimulate the innate immune system, a multiplex functional cell-based assay was used. The assay used human monocytes (THP-1 cell line) as target cells and expression of co-stimulatory molecules (CD54 and CD80) and immune-activating cytokines (IL-8, RANTES and TNFα) as assay readouts. These molecules play major role in the innate immune response and are required for effective activation of the adaptive immune system.
Molecule,IL-8,RANTES,TNFα,CD54,CD80
COc1cc2c(c(OC)c1OC)-c1ccc(OC)c(=O)cc1[C@@H](NC(C)=O)CC2 [Colchicine],7499.42,4383.62,66.37,554.50,3.69
CN[C@H]1CCc2cc(OC)c(OC)c(OC)c2-c2ccc(OC)c(=O)cc21 [Demecolcine],2533.58,740.62,95.20,600.87,4.91
CC[C@]1(O)C[C@@H]2CN(CCc3c([nH]c4ccccc34)[C@@](C(=O)OC)(c3cc4c(cc3OC)N(C)[C@H]3[C@@](O)(C(=O)OC)[C@H](OC(C)=O)[C@]5(CC)C=CCN6CC[C@]43[C@@H]65)C2)C1 [Vinblastine],6543.63,4568.01,78.47,665.18,3.89
CC[C@]1(O)C[C@H]2CN(CCc3c([nH]c4ccccc34)[C@@](C(=O)OC)(c3cc4c(cc3OC)N(C=O)[C@H]3[C@@](O)(C(=O)OC)[C@H](OC(C)=O)[C@]5(CC)C=CCN6CC[C@]43[C@@H]65)C2)C1 [Vincristine],8334.51,5232.60,88.30,814.96,3.90
bacterial lipopolisaccharide [LPS],13562.99,3217.60,866.78,3662.56,64.12

# Source: patent publication US20070059319A1, “Methods of screening for immuno-adjuvants and vaccines comprising anti-microtubule immuno-adjuvants” (Caliper Life Sciences, Inc., priority 2005, published 2007)
